Data: ChEMBL document CHEMBL4118037, “Lactone Derivatives Produced by a Phaeoacremonium sp., an Endophytic Fungus from Senna spectabilis” (J Nat Prod, 2017)

How the values were obtained:
[1] = system: Cladosporium sphaerospermum; assay: Antifungal activity against Cladosporium sphaerospermum (Perzig) SPC 491 assessed as detection limit for activity by bioautographic method; format: functional
[2] = system: Cladosporium cladosporioides; assay: Antifungal activity against Cladosporium cladosporioides (Fresen) Vries SPC 140 assessed as detection limit for activity by bioautographic method; format: functional
HeLa = assay: Cytotoxicity against human HeLa cells assessed as reduction in cell viability by MTT assay; format: functional, cell-based

Compound | Activity [1] [µg] | Activity [2] [µg] | IC50 (HeLa) [µM]
CCCCCCC[C@H]1OC2=C(C(=O)O[C@@H]2C)[C@@H](O)[C@]1(C)O | 5 | 5 | 100
CC[C@@]1(O)C(=O)OCc2c1cc1n(c2=O)Cc2cc3ccccc3nc2-1 [CAMPTOTHECIN] |  |  | 0.12
CCCCCCC[C@H]1OC2=C(C(=O)O[C@@H]2C)[C@@H](O)[C@@]1(C)O | 25 | 25 | > 100
CCCCCCC[C@H]1OC2=C(C(=O)[C@@H](C)O2)[C@@H](O)[C@]1(C)O | 5 | 5 | 50
NYSTATIN | 1 | 1 | 
CCCCCCC[C@H]1OC2=C(C(=O)O[C@@]2(C)O)[C@@H](O)[C@]1(C)O |  |  | > 100
